Results published in patent US10435399B2, “HDAC6 inhibitory heterocyclic compound” (TAKEDA PHARMACEUTICAL COMPANY LIMITED, priority 2017, dated 2019).

These compounds were tested against T1, HDAC6 enzyme (Homo sapiens, UniProt Q9UBN7) (assay: HDAC6 enzyme inhibitory activity (HDAC-Glo I/II Assay kit)). Conditions: 10 μM; wells without enzyme = 100% inhibition; read-out: HDAC6 inhibitory rate (%) (10 μM).
T1 construct: transducing full length HDAC6 gene into Sf-9 insect cells; GST; purchased SignalChem; host or cells: Sf-9 insect cells
T1 sequence (Q9UBN7 1-1215): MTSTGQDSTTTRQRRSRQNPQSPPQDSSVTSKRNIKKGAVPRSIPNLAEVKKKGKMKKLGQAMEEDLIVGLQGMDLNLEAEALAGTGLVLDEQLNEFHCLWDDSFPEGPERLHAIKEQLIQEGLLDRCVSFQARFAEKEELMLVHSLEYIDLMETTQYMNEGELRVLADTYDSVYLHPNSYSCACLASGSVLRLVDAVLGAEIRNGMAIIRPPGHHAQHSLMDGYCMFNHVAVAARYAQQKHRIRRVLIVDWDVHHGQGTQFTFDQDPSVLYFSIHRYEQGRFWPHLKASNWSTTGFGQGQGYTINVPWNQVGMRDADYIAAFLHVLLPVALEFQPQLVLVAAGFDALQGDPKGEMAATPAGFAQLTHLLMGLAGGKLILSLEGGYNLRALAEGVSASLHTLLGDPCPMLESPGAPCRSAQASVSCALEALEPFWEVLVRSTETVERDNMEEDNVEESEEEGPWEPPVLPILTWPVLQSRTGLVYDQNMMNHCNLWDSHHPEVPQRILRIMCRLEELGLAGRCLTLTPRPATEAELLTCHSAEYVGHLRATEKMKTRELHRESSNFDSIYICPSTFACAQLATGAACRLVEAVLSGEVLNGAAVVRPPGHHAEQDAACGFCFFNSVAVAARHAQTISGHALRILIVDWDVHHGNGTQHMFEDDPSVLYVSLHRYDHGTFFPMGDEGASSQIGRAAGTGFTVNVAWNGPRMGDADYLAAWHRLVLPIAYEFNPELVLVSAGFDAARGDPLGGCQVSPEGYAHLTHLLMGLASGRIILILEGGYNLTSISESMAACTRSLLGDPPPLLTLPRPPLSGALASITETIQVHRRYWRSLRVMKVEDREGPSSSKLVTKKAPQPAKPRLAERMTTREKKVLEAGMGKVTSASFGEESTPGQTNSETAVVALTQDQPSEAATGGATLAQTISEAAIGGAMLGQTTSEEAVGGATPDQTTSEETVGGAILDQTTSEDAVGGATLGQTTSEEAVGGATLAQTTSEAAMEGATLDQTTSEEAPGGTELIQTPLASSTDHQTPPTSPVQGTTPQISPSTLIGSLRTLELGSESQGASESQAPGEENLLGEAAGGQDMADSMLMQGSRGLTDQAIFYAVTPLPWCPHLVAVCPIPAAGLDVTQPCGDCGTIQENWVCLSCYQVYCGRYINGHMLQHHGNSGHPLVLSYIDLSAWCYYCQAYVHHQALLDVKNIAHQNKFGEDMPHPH
Assay type: biochemical
Outline: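 Full-length human HDAC6 (GST-purified, Sf-9 expressed) preincubated with compound 60 min at room temperature in Tris-HCl pH 7.5 buffer with MgCl2, KCl, NaCl, glutathione, Tween-20. HDAC-Glo I/II substrate-developer then added, 20 min room temperature, luminescence read. Inhibition relative to no-enzyme wells as 100%.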

| SMILES | inhibition at 10 µM |
| --- | --- |
| CC(F)(F)C(=O)N[C@H]1CCCC[C@H]1N1Cc2ccc(-c3nnc(C(F)F)o3)cc2C1=O [Example 258, N-((1S,2R)-2-(6-(5-(difluoro-methyl)-1,3,4-oxadiazol-2-yl)-1-oxo-1,3-dihydro-2H-isoindol-2-yl)cyclohexyl)-2,2-difluoro-propanamide] | 101% |
| O=C1c2cc(-c3nnc(C(F)F)o3)ccc2CN1[C@@H]1CCCC[C@@H]1NC(=O)C1(C(F)(F)F)CC1 [Example 259, N-((1S,2R)-2-(6-(5-(difluoro-methyl)-1,3,4-oxadiazol-2-yl)-1-oxo-1,3-dihydro-2H-isoindol-2-yl)cyclohexyl)-1-(trifluoromethyl)cyclopro-panecarboxamide] | 101% |
| CC(C)(C(=O)N[C@H]1CCCC[C@H]1N1Cc2ccc(-c3nnc(C(F)F)o3)cc2C1=O)C(F)(F)F [Example 260, N-((1S,2R)-2-(6-(5-(difluoro-methyl)-1,3,4-oxadiazol-2-yl)-1-oxo-1,3-dihydro-2H-isoindol-2-yl)cyclohexyl)-3,3,3-trifluoro-2,2-dimethyl-propanamide] | 98% |
| O=C1c2cc(-c3nnc(C(F)F)o3)ccc2CN1[C@@H]1CCCC[C@@H]1NC(=O)C(F)(F)C(F)(F)F [Example 261, N-((1S,2R)-2-(6-(5-(difluoro-methyl)-1,3,4-oxadiazol-2-yl)-1-oxo-1,3-dihydro-2H-isoindol-2-yl)cyclohexyl)-2,2,3,3,3-pentafluoropropan-amide] | 99% |
| COC(=O)N[C@H]1CCCC[C@H]1N1Cc2ccc(-c3nnc(C(F)F)o3)cc2C1=O [Example 262, methyl ((1S,2R)-2-(6-(5-(difluoromethyl)-1,3,4-oxadiazol-2-yl)-1-oxo-1,3-dihydro-2H-isoindol-2-yl)cyclohexyl)carbamate] | 98% |
| CC(C)(C)OC(=O)N1CCC[C@@H]1CN1Cc2c(F)cc(-c3nnc(C(F)F)o3)cc2C1=O [Example 263, tert-butyl (2R)-2-((6-(5-(difluoromethyl)-1,3,4-oxadiazol-2-yl)-4-fluoro-1-oxo-1,3-dihydro-2H-isoindol-2-yl)methyl)-pyrrolidine-1-carboxylate] | 99% |
| CC(=O)N(c1ccccn1)[C@@H]1CCCC[C@H]1N1Cc2ccc(-c3nnc(C(F)F)o3)cc2C1=O [Example 264, N-((1R,2R)-2-(6-(5-(difluoromethyl)-1,3,4-oxadiazol-2-yl)-1-oxo-1,3-dihydro-2H-isoindol-2-yl)cyclohexyl)-N-(pyridin-2-yl) acetamide] | 101% |
| O=C1c2cc(-c3nnc(C(F)F)o3)cc(F)c2CN1C[C@H]1COCCN1S(=O)(=O)c1cccc(F)c1 [Example 265, 6-(5-(difluoromethyl)-1,3,4-oxadiazol-2-yl)-4-fluoro-2-(((3S)-4-((3-fluorophenyl)-sulfonyl)morpholin-3-yl)-methyl)isoindolin-1-one] | 98% |
| COc1cccc(CN2Cc3ncc(-c4nnc(C(F)F)o4)cc3C2=O)c1 [Example 266, 3-(5-(difluoromethyl)-1,3,4-oxadiazol-2-yl)-6-(3-methoxybenzyl)-6,7-dihydro-5H-pyrrolo[3,4-b]-pyridin-5-one] | 99% |
| N#Cc1cccc(-c2ccc(Cl)cc2N2Cc3ccc(-c4nnc(C(F)F)o4)cc3C2=O)c1 [Example 267, 4′-chloro-2′-(6-(5-(difluoro-methyl)-1,3,4-oxadiazol-2-yl)-1-oxo-1,3-dihydro-2H-isoindol-2-yl)biphenyl-3-carbonitrile] | 100% |
| CC(C)(OC(=O)N[C@@H]1CCCC[C@H]1N1Cc2ncc(-c3nnc(C(F)F)o3)cc2C1=O)C(F)(F)F [Example 268, 1,1,1-trifluoro-2-methylpropan-2-yl ((1R,2R)-2-(3-(5-(difluoromethyl)-1,3,4-oxadiazol-2-yl)-5-oxo-5,7-dihydro-6H-pyrrolo[3,4-b]pyridin-6-yl)cyclohexyl)carbamate] | 100% |
| O=C1CCCN1CC(c1ccccc1)N1Cc2ncc(-c3nnc(C(F)F)o3)cc2C1=O (stereo not shown) [Example 269, 3-(5-(difluoromethyl)-1,3,4-oxadiazol-2-yl)-6-(2-(2-oxopyrrolidin-1-yl)-1-phenylethyl)-6,7-dihydro-5H-pyrrolo[3,4-b]pyridin-5-one] | 99% |
| Cn1cc(-c2cc(Cl)ccc2N2Cc3ccc(-c4nnc(C(F)F)o4)cc3C2=O)cn1 [Example 270, 2-(4-chloro-2-(1-methyl-1H-pyrazol-4-yl)phenyl)-6-(5-(difluoromethyl)-1,3,4-oxadiazol-2-yl)-isoindolin-1-one] | 99% |
| Cn1cc(-c2cc(F)ccc2N2Cc3ccc(-c4nnc(C(F)F)o4)cc3C2=O)cn1 [Example 271, 6-(5-(difluoromethyl)-1,3,4-oxadiazol-2-yl)-2-(4-fluoro-2-(1-methyl-1H-pyrazol-4-yl)phenyl)isoindolin-1-one] | 100% |
| COc1ccc(CN2Cc3ncc(-c4nnc(C(F)F)o4)cc3C2=O)c(OC)c1 [Example 272, 3-(5-(difluoromethyl)-1,3,4-oxadiazol-2-yl)-6-(2,4-dimethoxybenzyl)-6,7-dihydro-5H-pyrrolo-[3,4-b]pyridin-5-one] | 100% |
| O=C1c2cc(-c3nnc(C(F)F)o3)cnc2CN1Cc1cccc(F)c1 [Example 273, 3-(5-(difluoromethyl)-1,3,4-oxadiazol-2-yl)-6-(3-fluorobenzyl)-6,7-dihydro-5H-pyrrolo[3,4-b]pyridin-5-one] | 97% |
| O=C1c2cc(-c3nnc(C(F)F)o3)cc(F)c2CN1C[C@H]1CCCN1S(=O)(=O)C1CC1 [Example 274, 2-(((2R)-1-(cyclopropyl-sulfonyl)pyrrolidin-2-yl)methyl)-6-(5-(difluoro-methyl)-1,3,4-oxadiazol-2-yl)-4-fluoroisoindolin-1-one] | 99% |
| CC(C)(C)OC(=O)N1CCC[C@H]1CN1Cc2c(F)cc(-c3nnc(C(F)F)o3)cc2C1=O [Example 275, tert-butyl (2S)-2-((6-(5-(difluoromethyl)-1,3,4-oxadiazol-2-yl)-4-fluoro-1-oxo-1,3-dihydro-2H-isoindol-2-yl)methyl)-pyrrolidine-1-carboxylate] | 98% |
| O=C1c2cc(-c3nnc(C(F)F)o3)ccc2CN1c1ccccc1-c1ccc(F)cc1 [Example 276, 6-(5-(difluoromethyl)-1,3,4-oxadiazol-2-yl)-2-(4′-fluorobiphenyl-2-yl)-isoindolin-1-one] | 98% |
| O=C1c2cc(-c3nnc(C(F)F)o3)ccc2CN1c1ccccc1-c1ccccc1F [Example 277, 6-(5-(difluoromethyl)-1,3,4-oxadiazol-2-yl)-2-(2'-fluorobiphenyl-2-yl)isoindolin-1-one] | 97% |
| O=C1c2cc(-c3nnc(C(F)F)o3)ccc2CN1c1ccccc1-c1cccc(F)c1 [Example 278, 6-(5-(difluoromethyl)-1,3,4-oxadiazol-2-yl)-2-(3′-fluorobiphenyl-2-yl)-isoindolin-1-one] | 99% |
| N#Cc1ccc(-c2ccccc2N2Cc3ccc(-c4nnc(C(F)F)o4)cc3C2=O)cc1 [Example 279, 2′-(6-(5-(difluoromethyl)-1,3,4-oxadiazol-2-yl)-1-oxo-1,3-dihydro-2H-isoindol-2-yl)-biphenyl-4-carbonitrile] | 89% |
| CCc1ncccc1-c1ccccc1N1Cc2ccc(-c3nnc(C(F)F)o3)cc2C1=O [Example 280, 6-(5-(difluoromethyl)-1,3,4-oxadiazol-2-yl)-2-(2-(2-ethylpyridin-3-yl)phenyl)-isoindolin-1-one] | 99% |
| O=C1c2cc(-c3nnc(C(F)F)o3)ccc2CN1c1ccccc1-c1ccccc1Cl [Example 281, 2-(2′-chlorobiphenyl-2-yl)-6-(5-(difluoromethyl)-1,3,4-oxadiazol-2-yl)isoindolin-1-one] | 98% |
| O=C1c2cc(-c3nnc(C(F)F)o3)ccc2CN1c1ccccc1-c1ccc(Cl)cc1 [Example 282, 2-(4′-chlorobiphenyl-2-yl)-6-(5-(difluoromethyl)-1,3,4-oxadiazol-2-yl)isoindolin-1-one] | 98% |
